Test results: ChEMBL document CHEMBL1151909, “Mechanism of action of N-phenyl-N'-(2-chloroethyl)ureas in the colchicine-binding site at the interface between alpha- and beta-tubulin” (2009)

Test system: HT-29
Assay: Antiproliferative activity against human HT-29 cells after 48 hrs by SRB assay
Assay type: functional
Settings: HT-29, 48 h

Row | SMILES | GI50 [nM]
1 | COCCCCCc1cccc(NC(=O)NCCCl)c1 | 840
2 | COc1ccc(CCc2cccc(NC(=O)NCCCl)c2)cc1O | 9600
3 | COc1ccc(/C=C\c2ccc(NC(=O)NCCCl)cc2)cc1O | 2400
4 | O=C(NCCCl)Nc1cccc(CCCCO)c1 | 710

Stronger by GI50, values ahead:

Row | GI50 [nM] | SMILES
5 | 620 | CCCCCc1cccc(NC(=O)NCCCl)c1
6 | 600 | CC(=O)CCCCc1cccc(NC(=O)NCCCl)c1
7 | 300 | O=C(NCCCl)Nc1cccc(CCCCCCO)c1
8 | 160 | O=C(NCCCl)Nc1cccc(CCCCCO)c1
